Key:
[1] = tested on: normal healthy volunteers; test: Phase I double-blind randomized multiple-dose study, xanomeline alone vs xanomeline with trospium chloride: adverse event incidence; format: in vivo, human
Source text: We conducted a Phase I, double-blind, randomized multiple-dose pilot study of xanomeline administered alone compared to xanomeline administered in combination with trospium chloride in normal healthy volunteers. […] The parameters of the study were as follows:
70 total study subjects were randomized, and of these, 68 study subjects received at least one assessment on day 3, which was the first day of xanomeline administration. The demographics of the study subjects were as follows:
The incidence and number of cholinergic adverse events in the evaluable population of the study was as follows, with all p-values based on a chi-squared test, with the exception of those marked with a * which werebased on a Fisher's exact test: […]

[2] = with the anticholinergic agent glycopyrrolate; escalating amounts of RS-86; Alzheimer's Disease; cited from earlier work
[3] = methscopolamine given with xanomeline; Medina et al. 1997; cited from earlier work
[4] = evaluable population, xanomeline 75 mg TID, trospium 20 mg BID or placebo, 7 days

CCCCCCOc1nsnc1C1=CCCN(C)C1 [Xanomeline + placebo, Xanomeline]
Salivation, % of subjects ([1]; evaluable population, 7 days): 36.4%
Sweating, % of subjects ([1]; evaluable population, 7 days): 48.5%
Any cholinergic TEAEs, # of events [1, 4]: 64
Any cholinergic TEAEs, % of subjects [1, 4]: 63.6%
Any cholinergic TEAEs, n subjects [1, 4]: 21
Any cholinergic TEAEs, % of subjects ([1]; evaluable population, xanomeline 75 mg TID, trospium 20 mg BID or placebo, 7 days, listed as xanomeline+placebo): 63%
Any SAE, # events ([1]; in vivo): 0
Any SAE, % ([1]; in vivo): 0.0%
Any study drug related TEAE, # events ([1]; in vivo): 92
Any study drug related TEAE, % ([1]; in vivo): 69.7%
Max Severity of TEAE Mild, % ([1]; in vivo): (66.7) N/A %
Max Severity of TEAE Moderate, % ([1]; in vivo): (15.2) N/A %
Max Severity of TEAE Severe, % ([1]; in vivo): (0.0) %
Max severity of study drug related TEAE Mild, % ([1]; in vivo): (57/6) N/A
Max severity of study drug related TEAE Moderate, % ([1]; in vivo): (12.1) N/A %
Max severity of study drug related TEAE Severe, % ([1]; in vivo): (0.0) N/A %

CCN1C(=O)CC2(CCN(C)CC2)C1=O [RS-86]
improvement in cognition [2]: did not result in any improvement in cognition

C[N+]1(C)[C@@H]2C[C@@H](OC(=O)[C@H](CO)c3ccccc3)C[C@H]1[C@@H]1O[C@@H]12 [methscopolamine]
effect on syncope, a side effect observed with xanomeline [3]: no effect on syncope

From patent publication US10265311B2, “Methods and compositions for treatment of disorders ameliorated by muscarinic receptor activation” (PureTech Health LLC, priority 2009, dated 2019)
